Activity calls are given as the source filed them. The rule behind the calls is not given here.
Experiments:
[1] = Inhibition of cell division in sea urchin fertilized egg at 1 ug/ml; conditions: echinoidea, fertilized sea urchin eggs
Poecilia reticulata = test: Ichthyotoxicity against Poecilia reticulata up to 10 ppm; assay type: organism-based; conditions: in vivo
Bacillus subtilis = test: Antimicrobial activity against Bacillus subtilis at 100 ug/8 mm disk; assay type: functional, organism-based
Staphylococcus aureus = test: Antimicrobial activity against Staphylococcus aureus at 100 ug/8 mm disk; assay type: functional, organism-based
Escherichia coli = test: Antimicrobial activity against Escherichia coli at 100 ug/8 mm disk; assay type: functional, organism-based
Aspergillus sp. = test: Antimicrobial activity against Aspergillus sp. at 100 ug/8 mm disk; assay type: functional, organism-based
Cladosporium = test: Antimicrobial activity against Cladosporium at 100 ug/8 mm disk; assay type: functional, organism-based

For `C=C1CCC2=C(C)Cc3occ(C)c3C[C@@H]12` [ECHINOFURAN], which inhibition at 1 ug/ml [1] is on record?
Its inhibition at 1 ug/ml is 90%.

And the Activity (Poecilia reticulata)?
Its Activity is “Non-toxic”.

What about the Activity (Bacillus subtilis) of the same compound?
The Activity was “inactive”.

What about the Activity (Staphylococcus aureus) of the same compound?
Its Activity is “inactive”.

What about the Activity (Escherichia coli) of the same compound?
Its Activity is “inactive”.

And the Activity (Aspergillus sp.)?
The Activity was “inactive”.

And the Activity (Cladosporium)?
Its Activity is “inactive”.

Source: ChEMBL document CHEMBL1150048, “Echinofuran, a New Furanosesquiterpene from the Gorgonian Echinogorgia praelonga” (J Nat Prod, 1992)
